US8168681B2, “Amidoacetonitrile compounds and pesticidal composition thereof” (Novartis AG, priority 2008, dated 2012)

Assays:
Haemonchus contortus [1] = assay: In-vivo test on Mongolian gerbils using peroral application; parameters: species or system Mongolian gerbils (Meriones unguiculatus); conditions: repeated test 2a, gerbil, 0.32 mg/kg
Description: (§1) Six to eight week old Mongolian gerbils are infected through a stomach tube with ca. 2000 third instar larvae each of T. colubriformis and H. contortus. 6 days after infection, the gerbils are treated by peroral application with the test compounds, dissolved in a mixture of 2 parts DMSO and 1 part polyethylene glycol (PEG 400). On day 9 (3 days after treatment), when most of the H. contortus that are still present are late 4th instar larvae and most of the T. colubriformis are immature adults, the gerbils are killed in order to count the worms. The efficacy is calculated as the % reduction of the number of worms in each gerbil, compared with the geometric average of number of worms from 6 infected and untreated gerbils.
(§2) The above described in-vivo test on Trichostrongylus colubriformis (Tc) and Haemonchus contortus ([…]) was repeated with compounds 1.2, 1.3 and 1.5 from Table 1 and with the compounds of Examples 1a and 3a on pages 22-25 of WO 2008/96231.

[2] = system: Trichostrongylus colubriformis; assay: as above; parameters: species or system Mongolian gerbils (Meriones unguiculatus); conditions: repeated test 2a, gerbil, 0.32 mg/kg
Description: as §1, §2

Haemonchus contortus [3] = assay: Activity in vitro (egg hatch / larval development, 96-well agar plate); conditions: 0.1 ppm; 6 days at 25° C.; reduced egg hatch, reduced development of L3, or paralysis & death of larvae
Description: (§3) Freshly harvested and cleaned nematode eggs are used to seed a suitably formatted 96-well plate containing the test substances to be evaluated for antiparasitic activity. Each compound is tested by serial dilution in order to determine its MED. The test compounds are embedded in an agar-based nutritive medium allowing the full development of eggs through to 3rd instar larvae. The plates are incubated for 6 days at 25° C. and 60% relative humidity (RH). Egg-hatching and ensuing larval development are recorded to identify a possible nematodicidal activity. Efficacy is expressed in percent reduced egg hatch, reduced development of L3, or paralysis & death of larvae of all stages.

[4] = system: Trichostrongylus colubriformis; assay: as above; conditions: 0.1 ppm; 6 days at 25° C.; reduced egg hatch, reduced development of L3, or paralysis & death of larvae
Description: as §3

SMILES | Efficacy against Hc [%] (Haemonchus contortus [1]) | Efficacy against Tc [%] [2] | efficacy against Haemonchus contortus (Haemonchus contortus [3]) | efficacy against Trichostrongylus colubriformis [4]
CC(C#N)(COc1cc(C#N)ccc1Oc1ccc(Cl)cc1Cl)NC(=O)c1ccc(S(F)(F)(F)(F)F)cc1 (stereo not drawn) [Compound 1.2, N-[1-cyano-1-methyl-2-(5-cyano-2-{2,4-dichlorophenoxy}-phenoxy)-ethyl]-4-pentafluorothio-benzamide] | 98% | 100% | – | –
CC(C#N)(COc1cc(C#N)ccc1Oc1ccc(F)cc1Br)NC(=O)c1ccc(S(F)(F)(F)(F)F)cc1 (stereo not drawn) [Compound 1.3, N-[1-cyano-1-methyl-2-(5-cyano-2-{2-bromo-4-fluorophenoxy}-phenoxy)-ethyl]-4-pentafluorothio-benzamide] | 100% | 98% | – | –
CC(C#N)(COc1cc(C#N)ccc1Oc1ccc(OC(F)(F)F)cc1Cl)NC(=O)c1ccc(S(F)(F)(F)(F)F)cc1 (stereo not drawn) [Compound 1.5, N-[1-cyano-1-methyl-2-(5-cyano-2-{2-chloro-4-trifluoromethoxy-phenoxy}-phenoxy)-ethyl]-4-pentafluorothio-benzamide] | 100% | 99% | – | –
CC(C#N)(COc1cc(Cl)ccc1Oc1ccc(Cl)cc1Cl)NC(=O)c1ccc(S(C)(=O)=O)cc1 (stereo not drawn) [Compound 1.10, N-[1-cyano-1-methyl-2-(5-chloro-2-{2,4-dichlorophenoxy}-phenoxy)-ethyl]-4-methylsulfonyl-benzamide] | – | – | more than 90% | more than 90%
CC(C#N)(COc1cc(C#N)ccc1C(F)(F)F)NC(=O)c1ccc(S(F)(F)(F)(F)F)cc1 (stereo not drawn) [reference compound] | 85% | 33% | – | –
CC(C#N)(COc1ccc(C#N)cc1C(F)(F)F)NC(=O)c1ccc(S(F)(F)(F)(F)F)cc1 (stereo not drawn) [reference compound] | 40% | 23% | – | –
